In paper PMC2361661 (British Journal of Cancer, 2005):
Several values for one entry are separate records, joined by “and”; a condition that tells them apart may be missing. Equal entries are not always repeated. Where two headings read alike, the source gives them in different places.

Tests used:
[1] = tested on: ovarian cancer; settings: relapsed ovarian cancer, cited from earlier work
[2] = target: T1, thymidylate synthase (TS) (Homo sapiens, UniProt P04818); settings: ref Ford et al, 2002, cited from earlier work
T1 construct: endogenous in cells; host or cells: tissues of treated patients (in vivo)

[3] = tested on: folyl-polyglutamate synthase (FPGS); design: method as in Jackman et al, 1993; settings: compared to RTX; ref Jackman et al, 1993; cited from earlier work
[4] = tested on: human ovarian tumour cell lines; settings: ref Kelland et al, 1995; cited from earlier work
[5] = cited from earlier work
[6] = clinical; settings: human, plasma
Description: (§1) Prior to each assay the plasma samples were centrifuged at 3000 g for 5 min × 2, to sediment precipitants that would block pipette tips.
(§2) All dilutions required for the ELISA were performed by Multiprobe II automated liquid handling equipment (Perkin-Elmer, Cambridge, UK). […] Following further incubation and washing steps, the optical absorbance was read and plotted using a four-parameter logistic curve fitted by nonlinear regression as previously described ([Aherne et al, 2001]).
(§3) PK analysis was performed using WinNonlin Software, version 3.2 (Pharsight Corp., CA, USA). […] The following PK parameters were evaluated: maximum plasma concentration (Cmax), area under the plasma concentration–time curve (AUC), total body clearance (Cl), volume of distribution at steady state (Vss) and the terminal half-life (t1/2).

[7] = BGC9331 plasma pharmacokinetics by ELISA in phase I patients; settings: for Median Cmax / Median plasma clearance: ±s.d.; for AUClast / Cl_obs / Cmax / HL_Lambda_z / Vz_obs: BGC9331 65 mg m^−2, carboplatin AUC 5
Description: as §1, §2, §3

[8] = design: method as in Plummer et al, 2003; settings: ref Plummer et al, 2003, cited from earlier work; for AUC: mass spectroscopy
[9] = Carboplatin pharmacokinetics by flameless atomic absorption spectrophotometry (FAAS); settings: free carboplatin, carboplatin AUC 5 with BGC9331
Description: Carboplatin was measured by FAAS. This method has been previously described ([LeRoy et al, 1977]). Samples were analysed on a Perkin-Elmer HGA800, AA300 Flameless atomic absorption spectrophotometer, and a Platinum Lumina HCC lamp (Perkin-Elmer, Beaconsfield, UK).
Calibration standards were prepared individually for each assay batch by adding Carboplatin standards to control human plasma and ultrafiltrate. A blank was made using either plasma or ultrafiltrate only. A range of standards was made ranging from 5 to 50 ng ml^−1 Pt (plasma samples) to 10–150 ng ml^−1 Pt (ultrafiltrates).
For plasma analysis, three QCs were included in duplicate, ranging from low (15ng ml^−1 Pt) to medium (25 ng ml^−1 Pt) and high (45 ng ml^−1 Pt), by diluting stock solutions with plasma. For ultrafiltrate analysis low (20 ng ml^−1 Pt), medium (60 ng ml^−1 Pt) and high (120 ng ml^−1 Pt) QCs and stock solutions were diluted with plasma ultrafiltrate. A run was acceptable if four out of six QCs were within 15% of nominal concentration.

[10] = dose level 1 (BGC9331 40 mg m^−2, carboplatin AUC 5), day 1
[11] = dose level 1 (BGC9331 40 mg m^−2, carboplatin AUC 5), day 8
[12] = dose level 2 (BGC9331 65 mg m^−2, carboplatin AUC 5), day 1
[13] = dose level 2 (BGC9331 65 mg m^−2, carboplatin AUC 5), day 8

T1 sequence (P04818 2-313 limits assumed): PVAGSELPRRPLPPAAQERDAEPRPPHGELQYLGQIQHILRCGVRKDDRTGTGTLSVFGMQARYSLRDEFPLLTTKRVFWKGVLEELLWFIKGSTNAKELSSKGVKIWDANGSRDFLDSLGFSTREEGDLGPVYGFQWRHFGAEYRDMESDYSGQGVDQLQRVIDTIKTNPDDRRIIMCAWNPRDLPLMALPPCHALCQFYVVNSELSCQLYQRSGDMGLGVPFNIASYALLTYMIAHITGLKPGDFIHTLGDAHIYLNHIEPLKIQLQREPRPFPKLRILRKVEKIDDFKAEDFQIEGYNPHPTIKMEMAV

Compound: O=c1[nH]cc(F)c(=O)[nH]1 [5-FU, 5-fluorouracil]
- response rate ([1]; ref Look et al, 1995): 14%
- peak dUrd elevation ([2]; bolus 5-FU): 235±125%
- peak dUrd elevation ([2]; infusional 5-FU): 228±86%

Compound: C#CCN(Cc1ccc2nc(N)[nH]c(=O)c2c1)c1ccc(C(=O)N[C@@H](CCC(=O)O)C(=O)O)cc1 [CB3717, N10-propargyl-5,8-dideazafolic acid]
- substrate for FPGS [3]: relatively poor substrate
- cross-resistance to platinum-based agents [4]: non crossresistance

Compound: Cc1nc2ccc(CN(C)c3ccc(C(=O)N[C@@H](CCC(=O)O)C(=O)O)s3)cc2c(=O)[nH]1 [raltitrexed]
- response rate ([1]; ref Gore et al, 1995): 7%
- response rate ([1]; ref Muggia et al, 1998): 11%
- cross-resistance to platinum-based agents [4]: non crossresistance
- day on which dUrd reapproaches baseline ([2]; RTX on a 21-day cycle): ~15 days
- peak percentage rise of dUrd ([2]; RTX on a 21-day cycle): 349±128%

Compound: C#CCN(Cc1cc2c(=O)[nH]c(C)nc2cc1C)c1ccc(C(=O)N[C@@H](CCc2nnn[nH]2)C(=O)O)c(F)c1 [BGC9331]
- patients with grade 3 or 4 neutropaenia ([5]; BGC9331 130 mg m^−2 days 1 and 8 with cisplatin 75 mg m^−2, ref Bilenker et al, 2004): three of the four
- patients affected by diarrhoea ([5]; previous studies, ref Rader et al, 2003): 36%
- recommended single-agent phase II dose ([5]; ref Plummer et al, 2003): 130 mg m^−2
- AUC ([6]; 40 mg): 110 µg·h/mL
- Cmax ([6]; 40 mg): 7260 ng/mL
- AUC ([6]; 65 mg): 140 µg·h/mL
- Cmax ([6]; 65 mg): 10400 ng/mL
- Tmax ([6]; 65 mg): 30 min
- Median Cmax [7, 10]: 11200 ± 2500 ng/mL and 11210 ng/mL
- Median plasma clearance [7, 10]: 478 ± 61 mL/h
- Median Cmax [7, 11]: 7300 ± 5000 ng/mL
- Median plasma clearance [7, 11]: 971 ± 265 mL/h
- Median Cmax [7, 12]: 16500 ± 2400 ng/mL and 16540 ng/mL
- Median plasma clearance [7, 12]: 1197 ± 580 mL/h
- Median Cmax [7, 13]: 10400 ± 4000 ng/mL
- Median plasma clearance [7, 13]: 746 ± 584 mL/h
- AUClast ([7]; patient 4, administration 1): 90.4 µg·mL/h
- Cl_obs ([7]; patient 4, administration 1): 1197.5 mL/h
- Cmax ([7]; patient 4, administration 1): 16800 ng/mL
- HL_Lambda_z ([7]; patient 4, administration 1): 18.2 h
- Vz_obs ([7]; patient 4, administration 1): 31423.8 mL
- AUClast ([7]; patient 4, administration 2): 68.4 µg·mL/h
- Cl_obs ([7]; patient 4, administration 2): 1646.5 mL/h
- Cmax ([7]; patient 4, administration 2): 10400 ng/mL
- HL_Lambda_z ([7]; patient 4, administration 2): 27.8 h
- Vz_obs ([7]; patient 4, administration 2): 66088.6 mL
- AUClast ([7]; patient 5, administration 1): 264.6 µg·mL/h
- Cl_obs ([7]; patient 5, administration 1): 378.4 mL/h
- Cmax ([7]; patient 5, administration 1): 16600 ng/mL
- HL_Lambda_z ([7]; patient 5, administration 1): 25.5 h
- Vz_obs ([7]; patient 5, administration 1): 13891.3 mL
- AUClast ([7]; patient 5, administration 2): 193.3 µg·mL/h
- Cl_obs ([7]; patient 5, administration 2): 549.2 mL/h
- Cmax ([7]; patient 5, administration 2): 16700 ng/mL
- Vz_obs ([7]; patient 5, administration 2): 17208.1 mL
- AUClast ([7]; patient 6, administration 2): 141.3 µg·mL/h
- Cl_obs ([7]; patient 6, administration 2): 746.0 mL/h
- Cmax ([7]; patient 6, administration 2): 9300 ng/mL
- HL_Lambda_z ([7]; patient 6, administration 2): 28.1 h
- Vz_obs ([7]; patient 6, administration 2): 30257.3 mL
- AUC ([8]; BGC9331 monotherapy 42 mg m^−2): 176 µg·h/mL
- Cmax ([8]; BGC9331 monotherapy 42 mg m^−2): 10400 ng/mL
- AUC ([8]; BGC9331 monotherapy 69 mg m^−2): 322 µg·h/mL
- Cmax ([8]; BGC9331 monotherapy 69 mg m^−2): 19100 ng/mL

Compound: N.N.O=C([O-])C1(C(=O)[O-])CCC1.[Pt+2] [carboplatin]
- Alpha_HL ([9]; patient 1, dose level 1): 2.2 h
- Beta_HL ([9]; patient 1, dose level 1): 50.3 h
- CL ([9]; patient 1, dose level 1): 8.7 L/h
- V2 ([9]; patient 1, dose level 1): 91.2 L
- Vss ([9]; patient 1, dose level 1): 123.3 L
- Alpha_HL ([9]; patient 3, dose level 1): 1.2 h
- Beta_HL ([9]; patient 3, dose level 1): 8.2 h
- CL ([9]; patient 3, dose level 1): 4.8 L/h
- V2 ([9]; patient 3, dose level 1): 15.1 L
- Vss ([9]; patient 3, dose level 1): 27.1 L
- Alpha_HL ([9]; patient 4, dose level 2): 2.4 h
- Beta_HL ([9]; patient 4, dose level 2): 100.9 h
- CL ([9]; patient 4, dose level 2): 7.0 L/h
- V2 ([9]; patient 4, dose level 2): 158.5 L
- Vss ([9]; patient 4, dose level 2): 186.5 L
- Alpha_HL ([9]; patient 5, dose level 2): 1.5 h
- Beta_HL ([9]; patient 5, dose level 2): 92.0 h
- CL ([9]; patient 5, dose level 2): 6.0 L/h
- V2 ([9]; patient 5, dose level 2): 101.0 L
- Vss ([9]; patient 5, dose level 2): 115.6 L
- Alpha_HL ([9]; patient 6, dose level 2): 1.8 h
- Beta_HL ([9]; patient 6, dose level 2): 60.4 h
- CL ([9]; patient 6, dose level 2): 6.7 L/h
- V2 ([9]; patient 6, dose level 2): 88.9 L
- Vss ([9]; patient 6, dose level 2): 109.7 L
- Alpha_HL ([9]; patient 14, dose level 3): 0.4 h
- Beta_HL ([9]; patient 14, dose level 3): 2.6 h
- CL ([9]; patient 14, dose level 3): 6.1 L/h
- V2 ([9]; patient 14, dose level 3): 8.6 L
- Vss ([9]; patient 14, dose level 3): 16.5 L
